Laboratory results reported in ChEMBL document CHEMBL3390836, “Mannich- and LedererManasse-based analogues of the natural product S-(+)-curcuphenol as cancer proliferation and migration inhibitors” (Medchemcomm, 2012).

Legend:
[1] = Cytotoxicity against human OVCAR8 cells assessed as cell growth at 10 uM after 48 hrs by SRB assay relative to control; type: functional; settings: OVCAR-8, 48 h, read-out: Activity
SK-MEL-5 = experiment: Cytotoxicity against human SK-MEL-5 cells assessed as cell growth at 10 uM after 48 hrs by SRB assay relative to control; type: functional; settings: SK-MEL-5, 48 h, read-out: Activity
K562 = experiment: Cytotoxicity against human K562 cells assessed as cell growth at 10 uM after 48 hrs by SRB assay relative to control; type: functional; settings: K562, 48 h, read-out: Activity
SNB-75 = experiment: Cytotoxicity against human SNB75 cells assessed as cell growth at 10 uM after 48 hrs by SRB assay relative to control; type: functional; settings: SNB-75, 48 h, read-out: Activity
KM12 = experiment: Cytotoxicity against human KM12 cells assessed as cell growth at 10 uM after 48 hrs by SRB assay relative to control; type: functional; settings: KM12, 48 h, read-out: Activity
MOLT-4 = experiment: Cytotoxicity against human MOLT4 cells assessed as cell growth at 10 uM after 48 hrs by SRB assay relative to control; type: functional; settings: MOLT-4, 48 h, read-out: Activity
NCI-H226 = experiment: Cytotoxicity against human NCI-H226 cells assessed as cell growth at 10 uM after 48 hrs by SRB assay relative to control; type: functional; settings: NCI-H226, 48 h, read-out: Activity
TK-10 = experiment: Cytotoxicity against human TK10 cells assessed as cell growth at 10 uM after 48 hrs by SRB assay relative to control; type: functional; settings: TK-10, 48 h, read-out: Activity
HT-29 = experiment: Cytotoxicity against human HT-29 cells assessed as cell growth at 10 uM after 48 hrs by SRB assay relative to control; type: functional; settings: HT-29, 48 h, read-out: Activity
A549 = experiment: Cytotoxicity against human A549 cells assessed as cell growth at 10 uM after 48 hrs by SRB assay relative to control; type: functional; settings: A549, 48 h, read-out: Activity
[2] = Cytotoxicity against human PC3 cells assessed as cell growth at 10 uM after 48 hrs by SRB assay relative to control; type: functional; settings: PC-3, 48 h, read-out: Activity
[3] = Cytotoxicity against human OVCAR3 cells assessed as cell growth at 10 uM after 48 hrs by SRB assay relative to control; type: functional; settings: OVCAR-3, 48 h, read-out: Activity
NCI-H322M = experiment: Cytotoxicity against human NCI-H322M cells assessed as cell growth at 10 uM after 48 hrs by SRB assay relative to control; type: functional; settings: read-out: Activity
MCF7 = experiment: Cytotoxicity against human MCF7 cells assessed as cell growth at 10 uM after 48 hrs by SRB assay relative to control; type: functional; settings: MCF7, 48 h, read-out: Activity
MDA-MB-435 = experiment: Cytotoxicity against human MDA-MB-435 cells assessed as cell growth at 10 uM after 48 hrs by SRB assay relative to control; type: functional; settings: MDA-MB-435, 48 h, read-out: Activity
U-251 = experiment: Cytotoxicity against human U251 cells assessed as cell growth at 10 uM after 48 hrs by SRB assay relative to control; type: functional; settings: U-251, 48 h, read-out: Activity
MDA-MB-231 [4] = experiment: Cytotoxicity against human MDA-MB-231 cells assessed as cell growth at 10 uM after 48 hrs by SRB assay relative to control; type: functional; settings: MDA-MB-231, 48 h, read-out: Activity
M14 = experiment: Cytotoxicity against human M14 cells assessed as cell growth at 10 uM after 48 hrs by SRB assay relative to control; type: functional; settings: M14, 48 h, read-out: Activity
[5] = Cytotoxicity against human NCI-ADR-RES cells assessed as cell growth at 10 uM after 48 hrs by SRB assay relative to control; type: functional; settings: read-out: Activity
IGROV-1 = experiment: Cytotoxicity against human IGROV1 cells assessed as cell growth at 10 uM after 48 hrs by SRB assay relative to control; type: functional; settings: IGROV-1, 48 h, read-out: Activity
[6] = Cytotoxicity against human SKOV3 cells assessed as cell growth at 10 uM after 48 hrs by SRB assay relative to control; type: functional; settings: SK-OV-3, 48 h, read-out: Activity
[7] = Cytotoxicity against human UACC257 cells assessed as cell growth at 10 uM after 48 hrs by SRB assay relative to control; type: functional; settings: UACC-257, 48 h, read-out: Activity
SK-MEL-28 = experiment: Cytotoxicity against human SK-MEL-28 cells assessed as cell growth at 10 uM after 48 hrs by SRB assay relative to control; type: functional; settings: SK-MEL-28, 48 h, read-out: Activity
T47D = experiment: Cytotoxicity against human T47D cells assessed as cell growth at 10 uM after 48 hrs by SRB assay relative to control; type: functional; settings: read-out: Activity
LOX IMVI = experiment: Cytotoxicity against human LOXIMVI cells assessed as cell growth at 10 uM after 48 hrs by SRB assay relative to control; type: functional; settings: read-out: Activity
HOP-62 = experiment: Cytotoxicity against human HOP62 cells assessed as cell growth at 10 uM after 48 hrs by SRB assay relative to control; type: functional; settings: HOP-62, 48 h, read-out: Activity
[8] = Cytotoxicity against human HCT15 cells assessed as cell growth at 10 uM after 48 hrs by SRB assay relative to control; type: functional; settings: HCT-15, 48 h, read-out: Activity
ACHN = experiment: Cytotoxicity against human ACHN cells assessed as cell growth at 10 uM after 48 hrs by SRB assay relative to control; type: functional; settings: read-out: Activity
SF-539 = experiment: Cytotoxicity against human SF539 cells assessed as cell growth at 10 uM after 48 hrs by SRB assay relative to control; type: functional; settings: SF-539, 48 h, read-out: Activity
786-0 = experiment: Cytotoxicity against human 786-0 cells assessed as cell growth at 10 uM after 48 hrs by SRB assay relative to control; type: functional; settings: 786-0, 48 h, read-out: Activity
MDA-MB-231 [9] = experiment: Antimigratory activity against human MDA-MB-231 cells after 24 hrs by wound-healing assay; type: functional, cell-based; settings: MDA-MB-231, 24 h
MDA-MB-231 [10] = experiment: Growth inhibition of human MDA-MB-231 cells after 72 hrs by MTT assay; type: functional, cell-based; settings: MDA-MB-231, 72 h
HCC 2998 = experiment: Cytotoxicity against human HCC2998 cells assessed as cell growth at 10 uM after 48 hrs by SRB assay relative to control; type: functional; settings: HCC 2998, 48 h, read-out: Activity
SK-MEL-2 = experiment: Cytotoxicity against human SK-MEL-2 cells assessed as cell growth at 10 uM after 48 hrs by SRB assay relative to control; type: functional; settings: SK-MEL-2, 48 h, read-out: Activity
A498 = experiment: Cytotoxicity against human A498 cells assessed as cell growth at 10 uM after 48 hrs by SRB assay relative to control; type: functional; settings: A498, 48 h, read-out: Activity
RPMI-8226 = experiment: Cytotoxicity against human RPMI8226 cells assessed as cell growth at 10 uM after 48 hrs by SRB assay relative to control; type: functional; settings: RPMI-8226, 48 h, read-out: Activity

## CC(C)=CCC[C@H](C)c1ccc(C)c(CNCCO)c1O
[1]
  growth at 10 µM: 89.6%
SK-MEL-5
  growth at 10 µM: 92.5%
K562
  growth at 10 µM: 76.8%
SNB-75
  growth at 10 µM: 77.7%
KM12
  growth at 10 µM: 98.7%
MOLT-4
  growth at 10 µM: 87.5%
NCI-H226
  growth at 10 µM: 90%
TK-10
  growth at 10 µM: 81%
HT-29
  growth at 10 µM: 90.6%
A549
  growth at 10 µM: 94.4%
[2]
  growth at 10 µM: 88.1%
[3]
  growth at 10 µM: 95.7%
NCI-H322M
  growth at 10 µM: 100%
MCF7
  growth at 10 µM: 105%
MDA-MB-435
  growth at 10 µM: 95.8%
U-251
  growth at 10 µM: 87.2%
MDA-MB-231 [4]
  growth at 10 µM: 86.1%
M14
  growth at 10 µM: 101%
[5]
  growth at 10 µM: 88.7%
IGROV-1
  growth at 10 µM: 94.9%
[6]
  growth at 10 µM: 88.9%
[7]
  growth at 10 µM: 81.7%
SK-MEL-28
  growth at 10 µM: 112%
T47D
  growth at 10 µM: 90.2%
LOX IMVI
  growth at 10 µM: 88.7%
HOP-62
  growth at 10 µM: 81%
[8]
  growth at 10 µM: 98.6%
ACHN
  growth at 10 µM: 97.9%
SF-539
  growth at 10 µM: 96.5%
786-0
  growth at 10 µM: 83.7%
MDA-MB-231 [9]
  IC50: > 20 µM
MDA-MB-231 [10]
  IC50: 14.4 µM
HCC 2998
  growth at 10 µM: 76.9%
SK-MEL-2
  growth at 10 µM: 93%
A498
  growth at 10 µM: 66.5%
RPMI-8226
  growth at 10 µM: 86.9%

## CC(C)=CCC[C@H](C)c1ccc(C)c2c1OCN(CC1CCNCC1)C2
[1]
  growth at 10 µM: 75.3%
SK-MEL-5
  growth at 10 µM: 30%
K562
  growth at 10 µM: 0.57%
SNB-75
  growth at 10 µM: 62%
KM12
  growth at 10 µM: 38.4%
MOLT-4
  growth at 10 µM: 34.1%
NCI-H226
  growth at 10 µM: 94%
TK-10
  growth at 10 µM: 75%
HT-29
  growth at 10 µM: -68.5%
A549
  growth at 10 µM: 54.1%
[2]
  growth at 10 µM: 59.4%
[3]
  growth at 10 µM: 77.2%
NCI-H322M
  growth at 10 µM: 98%
MCF7
  growth at 10 µM: 36%
MDA-MB-435
  growth at 10 µM: 14.7%
U-251
  growth at 10 µM: -13%
MDA-MB-231 [4]
  growth at 10 µM: 64%
M14
  growth at 10 µM: -95.4%
[5]
  growth at 10 µM: 83.5%
IGROV-1
  growth at 10 µM: 78.7%
[6]
  growth at 10 µM: 87%
[7]
  growth at 10 µM: 24.6%
SK-MEL-28
  growth at 10 µM: 86%
T47D
  growth at 10 µM: -94.4%
LOX IMVI
  growth at 10 µM: -70.5%
HOP-62
  growth at 10 µM: 80%
[8]
  growth at 10 µM: 39.8%
ACHN
  growth at 10 µM: 64%
SF-539
  growth at 10 µM: 73%
786-0
  growth at 10 µM: -60.1%
MDA-MB-231 [9]
  IC50: 8.1 µM
MDA-MB-231 [10]
  IC50: 14.9 µM
HCC 2998
  growth at 10 µM: -82.1%
SK-MEL-2
  growth at 10 µM: 95%
A498
  growth at 10 µM: 64%
RPMI-8226
  growth at 10 µM: 23.7%
